In patent publication US10604509B2, “Nrf2 regulators” (GlaxoSmithKline Intellectual Property Development Limited, priority 2015, dated 2020) one finds EC50 data, which are given here for 25 compounds.

Structures can show the parent of a compound that is named as a salt. Where two headings read alike, the source gives them in different places. A value given as a limit tells only on which side of the number the result lay.

The test concerns NQO1 specific enzyme activity in BEAS-2B cells. In words: BEAS-2B NQO1 MTT assay. Conditions: BEAS-2B cells, 48 hours with compound, MTT readout, read-out: EC50 of NQO1 specific activity induction. It counts as cell-based. The method, boiled down: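 NQO1 specific activity, an NRF2 activation marker, read kinetically as absorbance change at 570 nm for 30 min after MTT cocktail addition to crude lysates of BEAS-2B cells exposed 48 h to compound. Three-parameter fit of Delta OD/min against log concentration gives EC50; lysate portion used for Cell Titer Glo.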

Usually EC50 stands for the concentration that produces a half-maximal response. For the compound `Cc1ccc(C(CC(=O)O)c2ccc3c(nnn3C)c2C)cc1CN(C)Cc1cccc(Br)c1` (stereo not shown) [Example 17, Ammonium 3-(3-(((3-bromobenzyl)(methyl)amino)methyl)-4-methylphenyl)-3-(1,4-dimethyl-1H-benzo[d][1,2,3]triazol-5-yl)propanoate], under “Homo sapiens, BEAS-2B, 48 h”, the EC50 lay within 1000 to 10000 nM.

Consider `CC[C@@H]1CN(Cc2cc([C@@H](c3ccc4c(nnn4C)c3C)C(C)(C)C(=O)NS(C)(=O)=O)ccc2C)Cc2cnccc2O1` [Example 205, (S)-3-(1,4-Dimethyl-1H-benzo[d][1,2,3]triazol-5-yl)-3-(3-(((R)-2-ethyl-2,3-dihydropyrido[3,4-f][1,4]oxazepin-4(5H)-yl)methyl)-4-methylphenyl)-2,2-dimethyl-N-(methylsulfonyl)propanamide, Trifluoroacetic Acid Salt], for which, for the setting “Homo sapiens, BEAS-2B, 48 h”, the EC50 was 100 to 1000 nM.

Take `CC[C@@H]1CN(Cc2cc(C(c3ccc4c(nnn4C)c3C)C(C)(C)C(=O)O)ccc2C)Cc2cc(F)ccc2O1` (stereo partly drawn) [Example 32, 3-(1,4-Dimethyl-1H-benzo[d][1,2,3]triazol-5-yl)-3-(3-(((R)-2-ethyl-7-fluoro-2,3-dihdyrobenzo[f][1,4]oxaz-epin-4(5H)-yl)methyl)-4-methylphenyl)-2,2-dimethylpropanoic acid, formic acid salt]: under “Homo sapiens, BEAS-2B, 48 h”, the EC50 lay within 1 to 10 nM.

With `Cc1ccc(C(CC(=O)O)c2ccc3c(nnn3C)c2C)cc1CN1CCOc2ccc(C#N)cc2C1` (stereo not shown) [Example 14, Ammonium 3-(3-((7-cyano-2,3-dihydrobenzo[f][1,4]oxazepin-4(5H)-yl)methyl)-4-methylphenyl)-3-(1,4-dimethyl-1H-benzo[d][1,2,3]triazol-5-yl)propanoate], for the setting “Homo sapiens, BEAS-2B, 48 h”, the EC50 was in the range of 1000 to 10000 nM.

Regarding `CCC1Cc2ccccc2CN(Cc2cc(C(CC(=O)O)c3ccc4c(nnn4C)c3C)ccc2C)C1` (stereo not shown) [Example 106, 3-(1,4-Dimethyl-1H-benzo[d][1,2,3]triazol-5-yl)-3-(3-((4-ethyl-4,5-dihydro-1H-benzo[c]azepin-2(3H)-yl)methyl)-4-methylphenyl)propanoic Acid], the concentration for a half-maximal effect (EC50) (Homo sapiens, BEAS-2B, 48 h) was 100 to 1000 nM.

In the case of “(S)-3-(1,4-Dimethyl-1H- benzo[d][1,2,3]triazol-5- yl)-3-(3-(((R)-2-ethyl-9- fluoro-2,3- dihydrobenzo[f][1,4]oxa- zepin-4(5H)-yl)methyl)-4- methylphenyl)-2,2- dimethylpropanoic acid, trifluoroacetic acid salt [Example 25]”, the EC50 was less than 1 nM.

Consider `CCC1Cc2c(F)cccc2CN(Cc2cc(C(c3ccc4c(nnn4C)c3C)C(C)(C)C(=O)O)ccc2C)C1` (stereo not shown) [Example 36, 3-(1,4-Dimethyl-1H-benzo[d][1,2,3]triazol-5-yl)-3-(3-((4-ethyl-6-fluoro-4,5-dihydro-1H-benzo[c]azepin-2(3H)-yl)methyl)-4-methylphenyl)-2,2-dimethylpropanoic acid], for which the EC50 (Homo sapiens, BEAS-2B, 48 h) was 1 to 10 nM.

For the compound `CC[C@@H]1CN(Cc2cc(C(c3ccc4c(nnn4C)c3C)C(C)(C)C(=O)O)ccc2C)Cc2c(F)cccc2O1` (stereo partly drawn) [Example 31, 3-(1,4-Dimethyl-1H-benzo[d][1,2,3]triazol-5-yl)-3-(3-(((R)-2-ethyl-6-fluoro-2,3-dihydrobenzo[f][1,4]oxazepin-4(5H)-yl)methyl)-4-methylphenyl)-2,2-dimethylpropanoic Acid, Formic Acid Salt], the EC50 (Homo sapiens, BEAS-2B, 48 h) is less than 1 nM.

Turning to `Cc1ccc(C(CC(=O)O)c2ccc3c(nnn3C)c2C)cc1Cn1ccnc1CC1CCCCC1` (stereo not shown) [Example 127, 3-(3-((2-(Cyclohexylmethyl)-1H-imidazol-1-yl)methyl)-4-methylphenyl)-3-(1,4-dimethyl1H-benzo[d][1,2,3]triazol-5-yl)propanoic Acid], the EC50 (Homo sapiens, BEAS-2B, 48 h) lay within 10 to 100 nM.

As to `CC[C@@H]1CN(Cc2cc(C(CC(=O)O)c3ccc4c(nnn4C)c3C)ccc2C)Cc2cccnc2O1` (stereo partly drawn) [Example 116, 3-(1,4-Dimethyl-1H-benzo[d][1,2,3]triazol-5-yl)-3-(3-(((R)-2-ethyl-2,3-dihydropyrido[3,2-f][1,4]oxazepin-4(5H)-yl)methyl)-4-methylphenyl)propanoic Acid, Formic Acid Salt], for the setting “Homo sapiens, BEAS-2B, 48 h”, the EC50 lay in the range of 1000 to 10000 nM.

As to `CC[C@@H]1CN(Cc2cc(C(CCc3cn(CC)nn3)C(C)(C)C(=O)O)ccc2C)Cc2cccnc2O1` (stereo partly drawn) [Example 217, 5-(1-Ethyl-1H-1,2,3-triazol-4-yl)-3-(3-(((R)-2-ethyl-2,3-dihydropyrido[3,2-f][1,4]oxazepin-4(5H)-yl)methyl)-4-methylphenyl)-2,2-dimethylpentanoic Acid], for the setting “Homo sapiens, BEAS-2B, 48 h”, the EC50 is 10 to 100 nM.

On to `COc1ccc2c(c1)OC(C)(C)CN(Cc1cc([C@H](CC(=O)O)c3ccc4c(nnn4C)c3C)ccc1C)C2` [Example 168, (S)-3-(1,4-Dimethyl-1H-benzo[d][1,2,3]triazol-5-yl)-3-(3-((8-methoxy-2,2-dimethyl-2,3-dihydrobenzo[f][1,4]oxazepin-4(5H)-yl)methyl)-4-methylphenyl)propanoic acid], for which, where the note is “Homo sapiens, BEAS-2B, 48 h”, the EC50 lay within 10 to 100 nM.

`CCC1CCN(Cc2nccn2Cc2cc([C@@H](c3ccc4c(nnn4CC)c3C)C(C)(C)C(=O)O)ccc2C)CC1` [Example 239, (S)-3-(1-Ethyl-4-methyl-1H-benzo[d][1,2,3]triazol-5-yl)-3-(3-((2-((4-ethylpiperidin-1-yl)methyl)-1H-imidazol-1-yl)methyl)-4-methylphenyl)-2,2-dimethylpropanoic Acid]: the 50% effective concentration (EC50) (Homo sapiens, BEAS-2B, 48 h) was less than 1 nM.

Regarding `CC[C@@H]1CN(Cc2cc(C(CC(=O)O)c3ccc4c(nnn4CC)c3F)ccc2C)Cc2ccccc2O1` (single isomer, unassigned) [Example 181], the concentration for a half-maximal effect (EC50) (Homo sapiens, BEAS-2B, 48 h) fell in the range of 10 to 100 nM.

`Cc1ccc(C(c2ccc3c(nnn3C)c2C)C(C)(C)C(=O)O)cc1Cc1cnnn1CC1CCCCCC1` (single isomer, unassigned) [Example 241]: for the setting “Homo sapiens, BEAS-2B, 48 h”, the EC50 was less than 1 nM.

As for `Cc1ccc(C(CC(=O)O)c2ccc3c(nnn3C)c2C)cc1Cn1ccnc1CN1CCC(F)(F)CC1` (stereo not shown) [Example 149, 3-(3-((2-((4,4-Difluoropiperidin-1-yl)methyl)-1H-imidazol-1-yl)methyl)-4-methylphenyl)-3-(1,4-dimethyl-1H-benzo[d][1,2,3]triazol-5-yl)propanoic acid], the EC50 (Homo sapiens, BEAS-2B, 48 h) fell in the range of 100 to 1000 nM.

Take `CCCC1CN(Cc2cc(C(CC(=O)O)c3ccc4c(nnn4C)c3C)ccc2C)Cc2ccccc2O1` (stereo not shown) [Example 71, 3-(1,4-dimethyl-1H-benzo[d][1,2,3]triazol-5-yl)-3-(4-methyl-3-((2-propyl-2,3-dihydrobenzo[f][1,4]oxazepin-4(5H)-yl)methyl)phenyl)propanoic Acid, Formic Acid Salt]: under “Homo sapiens, BEAS-2B, 48 h”, the EC50 lay in the range of 100 to 1000 nM.

On to `Cc1ccc(C(c2ccc3c(nnn3C)c2C)C(C)(C)C(=O)O)cc1CN1Cc2cccnc2OC(C)(C)C1` (stereo not shown) [Example 23, 3-(1,4-Dimethyl-1H-benzo[d][1,2,3]triazol-5-yl)-3-(3-((2,2-dimethyl-2,3-dihydropyrido[3,2-f][1,4]oxazepin-4(5H)-yl)methyl)-4-methylphenyl)-2,2-dimethylpropanoic Acid, Trifluoroacetic Acid], for which the EC50 (Homo sapiens, BEAS-2B, 48 h) lay within 10 to 100 nM.

`CC[C@@H]1CN(Cc2cc([C@H](CC(=O)O)c3ccc4c(nnn4C)c3C)ccc2C)Cc2cnccc2O1` [Example 50, (S)-3-(1,4-Dimethyl-1H-benzo[d][1,2,3]triazol-5-yl)-3-(3-(((R)-2-ethyl-2,3-dihydropyrido[3,4-f][1,4]oxazepin-4(5H)-yl)methyl)-4-methylphenyl)propanoic acid, formic acid salt]: the EC50 (Homo sapiens, BEAS-2B, 48 h) is 10 to 100 nM.

Regarding `Cc1ccc2c(c1)CN(Cc1cc([C@@H](CC(=O)O)c3ccc4c(nnn4C)c3C)ccc1C)CC(C)(C)O2` [Example 175, (R)-3-(1,4-Dimethyl-1H-benzo[d][1,2,3]triazol-5-yl)-3-(4-methyl-3-((2,2,7-trimethyl-2,3-dihydrobenzo[f][1,4]oxazepin-4(5H)-yl)methyl)phenyl)propanoic Acid], the EC50 (Homo sapiens, BEAS-2B, 48 h) was 10 to 100 nM.

For the compound `CC[C@@H]1CN(Cc2cc(C(CCc3cn(CC)nn3)CC(=O)NS(C)(=O)=O)ccc2C)Cc2cnccc2O1` (stereo partly drawn) [Example 234, 5-(1-Ethyl-1H-1,2,3-triazol-4-yl)-3-(3-(((R)-2-ethyl-2,3-dihydropyrido[3,4-f][1,4]oxazepin-4(5H)-yl)methyl)-4-methylphenyl)-N-(methylsulfonyl)pentanamide], the EC50 (Homo sapiens, BEAS-2B, 48 h) lay within 1000 to 10000 nM.

As to `Cc1ccc([C@@H](c2ccc3c(nnn3C)c2C)C(C)(C)C(=O)O)cc1CN1CCC[C@H](n2cccn2)C1` [Example 183, (S)-3-(3-(((S)-3-(1H-Pyrazol-1-yl)piperidin-1-yl)methyl)-4-methylphenyl)-3-(1,4-dimethyl-1H-benzo[d][1,2,3]triazol-5-yl)-2,2-dimethylpropanoic Acid], the half-maximal effective concentration (EC50) (Homo sapiens, BEAS-2B, 48 h) fell in the range of 10 to 100 nM.

`COc1ccc2c(c1)OC(C)(C)CN(Cc1cc([C@@H](CC(=O)O)c3ccc4c(nnn4C)c3C)ccc1C)C2` [Example 167, (R)-3-(1,4-Dimethyl-1H-benzo[d][1,2,3]triazol-5-yl)-3-(3-((8-methoxy-2,2-dimethyl-2,3-dihydrobenzo[f][1,4]oxazepin-4(5H)-yl)methyl)-4-methylphenyl)propanoic acid]: the EC50 (Homo sapiens, BEAS-2B, 48 h) fell in the range of 10 to 100 nM.

As for `Cc1ccc([C@H](c2ccc3c(nnn3C)c2C)[C@H](C)C(=O)O)cc1CN1Cc2cnccc2OC(C)(C)C1` [Example 198, (2S,3R)-3-(1,4-Dimethyl-1H-benzo[d][1,2,3]triazol-5-yl)-3-(3-((2,2-dimethyl-2,3-dihydropyrido[3,4-f][1,4]oxazepin-4(5H)-yl)methyl)-4-methylphenyl)-2-methylpropanoic acid, 0.1 formic acid salt], the EC50 (Homo sapiens, BEAS-2B, 48 h) is 10 to 100 nM.

In the case of `Cc1ccc(C(CC(=O)O)c2ccc3c(nnn3C)c2C)cc1Cn1cnc(CC2CCCCC2)c1` (stereo not shown) [Example 136, 3-(3-((4-(Cyclohexylmethyl)-1H-imidazol-1-yl)methyl)-4-methylphenyl)-3-(1,4-dimethyl-1H-benzo[d][1,2,3]triazol-5-yl)propanoic Acid], the EC50 (Homo sapiens, BEAS-2B, 48 h) was in the range of 10 to 100 nM.
